From ChEMBL document CHEMBL3137667, “[Drug-induced liver injury; fourteenth updated edition of the bibliographic database of liver injuries and related drugs]” (Gastroenterol Clin Biol, 2004)

Assays:
[1] = Highest frequency of moderate liver toxicity observed during clinical trials, expressed as a percentage. [column '% BIOL' in source]; conditions: human
[2] = Highest frequency of acute liver toxicity observed during clinical trials, expressed as a percentage. [column '% AIGUE' in source]; conditions: human
[3] = Presence of at least one case with successful reintroduction. [column 'REINT' in source]; conditions: human
[4] = Times to onset, minimal and maximal, observed in the indexed observations. [column 'DELAI' in source]; conditions: human
[5] = human, serum
[6] = human, serum; remark: listed apart in the source
[7] = human
[8] = human; remark: listed apart in the source
[9] = human; remark: listed apart in the source
[10] = human, serum, 4383 h
[11] = human; remark: listed apart in the source
[12] = human; remark: listed apart in the source
[13] = human; remark: listed apart in the source
[14] = human; remark: listed apart in the source
[15] = human; remark: listed apart in the source
[16] = human; remark: listed apart in the source
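Throughout, for Hepatotoxicity (association with vascular disease): count of indexed literature references reporting vascular liver injury in humans, e.g. peliosis hepatitis, hepatic veno-occlusive disease or Budd-Chiari syndrome.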
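Throughout, for Hepatotoxicity (benign tumour): value is a count of indexed literature references citing a benign tumour confirmed by histopathology.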
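Throughout, for Hepatotoxicity (choleostasis): human cholestatic liver injury, shown by histopathology or by peak ALT or AST elevation over alkaline phosphatase ratio below 2, value counts indexed literature reports.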
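Throughout, for Hepatotoxicity (chronic liver disease): chronic liver injury confirmed by histopathology or persistently raised serum aminotransferase activity beyond 6 months, value given as the count of indexed literature references.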
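Throughout, for Hepatotoxicity (cirrhosis): value is a count of indexed literature references reporting cirrhosis confirmed by histopathology.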
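Throughout, for Hepatotoxicity (cytolytic): human cytolytic liver injury, shown by histopathology or by a ratio above 5 of peak ALT or AST elevation to alkaline phosphatase elevation, value counts indexed references.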
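Throughout, for Hepatotoxicity (granulomatous hepatitis): value is a count of indexed literature references reporting granulomatous liver disease confirmed by histopathology.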
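Throughout, for Hepatotoxicity (malignant tumour): malignant tumour confirmed by histopathology, value gives the count of indexed literature references reporting it.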
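Throughout, for Hepatotoxicity (severe hepatitis): human clinical data: severe hepatitis, meaning potentially life-threatening liver failure or clinically observed cases, the value counts how many indexed literature references report it.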
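Throughout, for Hepatotoxicity (steatosis): steatosis confirmed by histopathology, value is the count of indexed references.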

Row | Compound | Hepatotoxicity (moderate) [1] | Hepatotoxicity (acute) [2] | Hepatotoxicity (successful reintroduction) [3] | Hepatotoxicity (time to onset) [4] | Hepatotoxicity (moderate) [5] | Hepatotoxicity (acute) [6] | Hepatotoxicity (cytolytic) [7] | Hepatotoxicity (choleostasis) [8] | Hepatotoxicity (severe hepatitis) [9] | Hepatotoxicity (chronic liver disease) [10] | Hepatotoxicity (cirrhosis) [11] | Hepatotoxicity (granulomatous hepatitis) [12] | Hepatotoxicity (association with vascular disease) [13] | Hepatotoxicity (steatosis) [14] | Hepatotoxicity (malignant tumour) [15] | Hepatotoxicity (benign tumour) [16]
1 | O=c1[nH]c(=O)n(C2CCCO2)cc1F (stereo not given) [TEGAFUR] | 17.5% | 0% | yes | 1.5 months - 9 months | 2 | 3 | 1 | 0 | 3 | 2 | 1 | 0 | 0 | 0 | 0 | 0
2 | O=c1cc[nH]c(=S)[nH]1 [THIOURACIL] | 0% | 5.9% | yes | 1 day - 3 weeks | 0 | 5 | 1 | 1 | 1 | 0 | 0 | 0 | 0 | 0 | 0 | 0
3 | Cc1c(Cl)cccc1Nc1ccccc1C(=O)O [TOLFENAMIC ACID] | 0% | 0% | yes | 6 months | 0 | 2 | 1 | 0 | 0 | 0 | 0 | 0 | 0 | 0 | 0 | 0
4 | COc1cc(C(=O)NS(=O)(=O)c2ccccc2C)ccc1Cc1cn(C)c2ccc(NC(=O)OC3CCCC3)cc12 [ZAFIRLUKAST] | 4.1% | 0.5% | yes | 2 months - 1 year | 4 | 8 | 8 | 0 | 3 | 0 | 0 | 0 | 0 | 0 | 0 | 0
5 | CN(C)C/C=C(/c1ccc(Br)cc1)c1cccnc1 [ZIMELDINE] | 20.5% | 6.6% | yes | 2 weeks - 2 months | 9 | 4 | 3 | 3 | 0 | 0 | 0 | 2 | 0 | 0 | 0 | 0
6 | ENOXAPARIN | 36% | 0% | yes | 12 hours - 2 weeks | 8 | 0 | 0 | 0 | 0 | 0 | 0 | 0 | 0 | 0 | 0 | 0
7 | FILGRASTIM | 75% | 0% | yes | 3 days - 8 days | 7 | 2 | 2 | 1 | 0 | 0 | 0 | 0 | 0 | 0 | 0 | 0
8 | INSULIN HUMAN | 0% | 0% | yes | 6 days - 1 month | 5 | 1 | 1 | 0 | 0 | 0 | 0 | 0 | 0 | 0 | 0 | 0
9 | PEGVISOMANT | 0% | 1.3% | yes | 4 weeks - 8 weeks | 0 | 2 | 2 | 0 | 0 | 0 | 0 | 0 | 0 | 0 | 0 | 0
10 | PENTOSAN POLYSULFATE SODIUM | 75% | 0% | yes | 1 week - 2 weeks | 5 | 1 | 1 | 0 | 0 | 0 | 0 | 0 | 0 | 0 | 0 | 0
